Test results taken from patent publication US12077503B2, “Substituted cyclic amides and their use as herbicides” (FMC CORPORATION, priority 2015, dated 2024).

Key:
Assay in all cases: Test C preemergence
Format in all cases: in vivo
Conditions in all cases: scale 0 to 100, 0 no effect, 100 complete control
[1] = tested on: Galium (catchweed bedstraw, Galium aparine)
Excerpt: (§1) Seeds of plant species selected from blackgrass (Alopecurus myosuroides), ryegrass, Italian (Italian ryegrass, Lolium multiflorum), wheat (winter wheat, Triticum aestivum), Galium (catchweed bedstraw, Galium aparine), corn (Zea mays), crabgrass, large (large crabgrass, Digitaria sanguinalis), foxtail, giant (giant foxtail, Setaria faberii), johnsongrass (Sorghum halepense), lambsquarters (Chenopodium album), morningglory (Ipomoea coccinea), nutsedge, yellow (yellow nutsedge, Cyperus esculentus), pigweed (Amaranthus retroflexus), ragweed (common ragweed, Ambrosia elatior), soybean (Glycine max), barnyardgrass (Echinochloa crus-galli), oilseed rape (Brassica napus), waterhemp (common waterhemp, Amaranthus rudis) and velvetleaf (Abutilon theophrasti) were planted into a blend of loam soil and sand and treated preemergence with test chemicals formulated in a non-phytotoxic solvent mixture which included a surfactant.
(§2) At the same time, plants selected from these crop and weed species and also Kochia (Kochia scoparia), oat, wild (wild oat, Avena fatua), and chickweed (common chickweed, Stellaria media) were planted in pots containing Sunshine Redi-Earth® planting medium comprising spaghnum peat moss, vermiculite, starter nutrients and dolomitic limestone and treated with postemergence applications of test chemicals formulated in the same manner. Plants ranged in height from 2 to 18 cm (1- to 4-leaf stage) for postemergence treatments. Treated plants and controls were maintained in a greenhouse for 13 to 15 d, after which time all species were compared to controls and visually evaluated. Plant response ratings, summarized in Table C, are based on a scale of 0 to 100 where 0 is no effect and 100 is complete control. A dash (-) response means no test result.

[2] = tested on: barnyardgrass (Echinochloa crus-galli)
Excerpt: as §1, §2

[3] = tested on: blackgrass (Alopecurus myosuroides)
Excerpt: as §1, §2

[4] = tested on: corn (Zea mays)
Excerpt: as §1, §2

[5] = tested on: crabgrass, large (large crabgrass, Digitaria sanguinalis)
Excerpt: as §1, §2

[6] = tested on: foxtail, giant (giant foxtail, Setaria faberii)
Excerpt: as §1, §2

[7] = tested on: lambsquarters (Chenopodium album)
Excerpt: as §1, §2

[8] = tested on: morningglory (Ipomoea coccinea)
Excerpt: as §1, §2

[9] = tested on: nutsedge, yellow (yellow nutsedge, Cyperus esculentus)
Excerpt: as §1, §2

[10] = tested on: oilseed rape (Brassica napus)
Excerpt: as §1, §2

[11] = tested on: pigweed (Amaranthus retroflexus)
Excerpt: as §1, §2

[12] = tested on: ragweed (common ragweed, Ambrosia elatior)
Excerpt: as §1, §2

[13] = tested on: ryegrass, Italian (Italian ryegrass, Lolium multiflorum)
Excerpt: as §1, §2

[14] = tested on: soybean (Glycine max)
Excerpt: as §1, §2

[15] = tested on: velvetleaf (Abutilon theophrasti)
Excerpt: as §1, §2

[16] = tested on: waterhemp (common waterhemp, Amaranthus rudis)
Excerpt: as §1, §2

[17] = tested on: wheat (winter wheat, Triticum aestivum)
Excerpt: as §1, §2

## CN1CC(c2ccc(C(F)(F)F)c(F)c2)C(C(=O)Nc2ccccc2S(C)(=O)=O)C1=O (stereo not drawn) [Compound 397]
[1]; 31 g ai/ha
  Plant response rating, Galium: 40
[1]; 62 g ai/ha
  Plant response rating, Galium: 80
[1]; 125 g ai/ha
  Plant response rating, Galium: 90
[1]; 250 g ai/ha
  Plant response rating, Galium: 90
[2]; 31 g ai/ha
  Plant response rating, Barnyardgrass: 90
[2]; 62 g ai/ha
  Plant response rating, Barnyardgrass: 95
[2]; 125 g ai/ha
  Plant response rating, Barnyardgrass: 98
[2]; 250 g ai/ha
  Plant response rating, Barnyardgrass: 98
[3]; 31 g ai/ha
  Plant response rating, Blackgrass: 55
[3]; 62 g ai/ha
  Plant response rating, Blackgrass: 70
[3]; 125 g ai/ha
  Plant response rating, Blackgrass: 90
[3]; 250 g ai/ha
  Plant response rating, Blackgrass: 90
[4]; 31 g ai/ha
  Plant response rating, Corn: 25
[4]; 62 g ai/ha
  Plant response rating, Corn: 15
[4]; 125 g ai/ha
  Plant response rating, Corn: 60
[4]; 250 g ai/ha
  Plant response rating, Corn: 75
[5]; 31 g ai/ha
  Plant response rating, Crabgrass, Large: 98
[5]; 62 g ai/ha
  Plant response rating, Crabgrass, Large: 98
[5]; 125 g ai/ha
  Plant response rating, Crabgrass, Large: 100
[5]; 250 g ai/ha
  Plant response rating, Crabgrass, Large: 100
[6]; 31 g ai/ha
  Plant response rating, Foxtail, Giant: 95
[6]; 62 g ai/ha
  Plant response rating, Foxtail, Giant: 95
[6]; 125 g ai/ha
  Plant response rating, Foxtail, Giant: 98
[6]; 250 g ai/ha
  Plant response rating, Foxtail, Giant: 98
[7]; 31 g ai/ha
  Plant response rating, Lambsquarters: 30
[7]; 62 g ai/ha
  Plant response rating, Lambsquarters: 70
[7]; 125 g ai/ha
  Plant response rating, Lambsquarters: 75
[7]; 250 g ai/ha
  Plant response rating, Lambsquarters: 75
[8]; 31 g ai/ha
  Plant response rating, Morningglory: 5
[8]; 62 g ai/ha
  Plant response rating, Morningglory: 55
[8]; 125 g ai/ha
  Plant response rating, Morningglory: 60
[8]; 250 g ai/ha
  Plant response rating, Morningglory: 70
[9]; 31 g ai/ha
  Plant response rating, Nutsedge, Yellow: 0
[9]; 62 g ai/ha
  Plant response rating, Nutsedge, Yellow: 10
[9]; 125 g ai/ha
  Plant response rating, Nutsedge, Yellow: 50
[9]; 250 g ai/ha
  Plant response rating, Nutsedge, Yellow: 70
[10]; 31 g ai/ha
  Plant response rating, Oilseed Rape: 20
[10]; 62 g ai/ha
  Plant response rating, Oilseed Rape: 70
[10]; 125 g ai/ha
  Plant response rating, Oilseed Rape: 80
[10]; 250 g ai/ha
  Plant response rating, Oilseed Rape: 85
[11]; 31 g ai/ha
  Plant response rating, Pigweed: 55
[11]; 62 g ai/ha
  Plant response rating, Pigweed: 90
[11]; 125 g ai/ha
  Plant response rating, Pigweed: 95
[11]; 250 g ai/ha
  Plant response rating, Pigweed: 95
[12]; 31 g ai/ha
  Plant response rating, Ragweed: 20
[12]; 62 g ai/ha
  Plant response rating, Ragweed: 75
[12]; 125 g ai/ha
  Plant response rating, Ragweed: 70
[12]; 250 g ai/ha
  Plant response rating, Ragweed: 70
[13]; 62 g ai/ha
  Plant response rating, Ryegrass, Italian: 60
[13]; 125 g ai/ha
  Plant response rating, Ryegrass, Italian: 60
[13]; 250 g ai/ha
  Plant response rating, Ryegrass, Italian: 60
[14]; 62 g ai/ha
  Plant response rating, Soybean: 0
[14]; 125 g ai/ha
  Plant response rating, Soybean: 0
[14]; 250 g ai/ha
  Plant response rating, Soybean: 20
[15]; 62 g ai/ha
  Plant response rating, Velvetleaf: 25
[15]; 125 g ai/ha
  Plant response rating, Velvetleaf: 30
[15]; 250 g ai/ha
  Plant response rating, Velvetleaf: 45
[16]; 62 g ai/ha
  Plant response rating, Waterhemp: 90
[16]; 125 g ai/ha
  Plant response rating, Waterhemp: 98
[16]; 250 g ai/ha
  Plant response rating, Waterhemp: 95
[17]; 62 g ai/ha
  Plant response rating, Wheat: 45
[17]; 125 g ai/ha
  Plant response rating, Wheat: 45
[17]; 250 g ai/ha
  Plant response rating, Wheat: 70
